# Assay results taken from ChEMBL document CHEMBL1201862, “PubChem BioAssay data set” (2004).
#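 48-hour exposure; five concentrations; linearly interpolated endpoints. Here, GI50 denotes the concentration required for 50% inhibition of growth.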 Activity calls are given as the source filed them. Rule as the data show it: active = GI50 up to about 1.1 µM and inactive = higher.
# Columns and labels:
# Experiment in all cases: growth of human tumour cells (NCI), 48 h
# NCI-H23 = test system: NCI-H23
# SK-MEL-28 = test system: SK-MEL-28
# OVCAR-5 = test system: OVCAR-5
# 786-0 = test system: 786-0
# K562 = test system: K562
# NCI-H460 = test system: NCI-H460
# COLO 205 = test system: COLO 205
# SK-OV-3 = test system: SK-OV-3
# IGROV-1 = test system: IGROV-1
# TK-10 = test system: TK-10
# HOP-62 = test system: HOP-62
# ACHN = test system: ACHN
# OVCAR-8 = test system: OVCAR-8
# HT-29 = test system: HT-29
# U-251 = test system: U-251
# SK-MEL-5 = test system: SK-MEL-5
# SNB-75 = test system: SNB-75
# SK-MEL-2 = test system: SK-MEL-2
# A549 = test system: A549
# SF-539 = test system: SF-539
# RXF 393 = test system: RXF 393
# Malme-3M = test system: Malme-3M
# SW-620 = test system: SW-620
# MDA-MB-435 = test system: MDA-MB-435
# PC-3 = test system: PC-3
# M14 = test system: M14
# CAKI-1 = test system: CAKI-1
# T47D = test system: T47D
# UO-31 = test system: UO-31
# SR = test system: SR
# MCF7 = test system: MCF7
# MOLT-4 = test system: MOLT-4
# KM12 = test system: KM12
# UACC-257 = test system: UACC-257
# Hs-578T = test system: Hs-578T
# UACC-62 = test system: UACC-62
# NCI/ADR-RES = test system: NCI/ADR-RES
# CCRF-CEM = test system: CCRF-CEM
# OVCAR-4 = test system: OVCAR-4
# DU-145 = test system: DU-145
# LOX IMVI = test system: LOX IMVI
# HOP-92 = test system: HOP-92
# HCT-15 = test system: HCT-15
# EKVX = test system: EKVX
# A498 = test system: A498
# HCC 2998 = test system: HCC 2998
# RPMI-8226 = test system: RPMI-8226
# BT-549 = test system: BT-549
# OVCAR-3 = test system: OVCAR-3
# SN12C = test system: SN12C
# NCI-H522 = test system: NCI-H522
# MDA-N = test system: MDA-N
# SNB-19 = test system: SNB-19
# SF-295 = test system: SF-295
# NCI-H226 = test system: NCI-H226
# HCT-116 = test system: HCT-116
# HL-60 = test system: HL-60
# MDA-MB-231 = test system: MDA-MB-231
# SF-268 = test system: SF-268
smiles,measurement,setting,value
COCOC1/C=C/CCCCC2=C(C)C=C(C1)O2 (stereo not given),GI50,NCI-H23,> 100 µM (inactive)
same,GI50,SK-MEL-28,> 100 µM (inactive)
same,GI50,OVCAR-5,> 100 µM (inactive)
same,GI50,786-0,> 100 µM (inactive)
same,GI50,K562,> 100 µM (inactive)
same,GI50,NCI-H460,> 100 µM (inactive)
same,GI50,COLO 205,> 100 µM (inactive)
same,GI50,SK-OV-3,> 100 µM (inactive)
same,GI50,IGROV-1,> 100 µM (inactive)
same,GI50,TK-10,> 100 µM (inactive)
same,GI50,HOP-62,> 100 µM (inactive)
same,GI50,ACHN,> 100 µM (inactive)
same,GI50,OVCAR-8,> 100 µM (inactive)
same,GI50,HT-29,> 100 µM (inactive)
same,GI50,U-251,> 100 µM (inactive)
same,GI50,SK-MEL-5,> 100 µM (inactive)
same,GI50,SNB-75,> 100 µM (inactive)
same,GI50,SK-MEL-2,> 100 µM (inactive)
same,GI50,A549,> 100 µM (inactive)
same,GI50,SF-539,> 100 µM (inactive)
same,GI50,RXF 393,> 100 µM (inactive)
same,GI50,Malme-3M,> 100 µM (inactive)
same,GI50,SW-620,> 100 µM (inactive)
same,GI50,MDA-MB-435,> 100 µM (inactive)
same,GI50,PC-3,> 100 µM (inactive)
same,GI50,M14,> 100 µM (inactive)
same,GI50,CAKI-1,> 100 µM (inactive)
same,GI50,T47D,> 100 µM (inactive)
same,GI50,UO-31,> 100 µM (inactive)
same,GI50,SR,> 100 µM (inactive)
same,GI50,MCF7,> 100 µM (inactive)
same,GI50,MOLT-4,> 100 µM (inactive)
same,GI50,KM12,> 100 µM (inactive)
same,GI50,UACC-257,> 100 µM (inactive)
same,GI50,Hs-578T,> 100 µM (inactive)
same,GI50,UACC-62,> 100 µM (inactive)
same,GI50,NCI/ADR-RES,> 100 µM (inactive)
same,GI50,CCRF-CEM,> 100 µM (inactive)
same,GI50,OVCAR-4,> 100 µM (inactive)
same,GI50,DU-145,> 100 µM (inactive)
same,GI50,LOX IMVI,> 100 µM (inactive)
same,GI50,HOP-92,> 100 µM (inactive)
same,GI50,HCT-15,> 100 µM
same,GI50,EKVX,> 100 µM (inactive)
same,GI50,A498,> 100 µM (inactive)
same,GI50,HCC 2998,> 100 µM (inactive)
same,GI50,RPMI-8226,> 100 µM (inactive)
same,GI50,BT-549,> 100 µM (inactive)
same,GI50,OVCAR-3,> 100 µM (inactive)
same,GI50,SN12C,> 100 µM (inactive)
same,GI50,NCI-H522,> 100 µM (inactive)
same,GI50,MDA-N,> 100 µM (inactive)
same,GI50,SNB-19,> 100 µM (inactive)
same,GI50,SF-295,> 100 µM (inactive)
same,GI50,NCI-H226,> 100 µM (inactive)
same,GI50,HCT-116,> 100 µM (inactive)
same,GI50,HL-60,45.4 µM (inactive)
same,GI50,MDA-MB-231,> 100 µM (inactive)
same,GI50,SF-268,> 100 µM (inactive)
CO/N=C(\C)c1cccc(Nc2c3ccccc3nc3occc23)c1,GI50,NCI-H23,7.45 µM (inactive)
same,GI50,SK-MEL-28,5.35 µM (inactive)
same,GI50,OVCAR-5,20.5 µM (inactive)
same,GI50,786-0,14.7 µM (inactive)
same,GI50,K562,4.11 µM (inactive)
same,GI50,NCI-H460,5.81 µM (inactive)
same,GI50,COLO 205,5.24 µM (inactive)
same,GI50,SK-OV-3,14.4 µM (inactive)
same,GI50,IGROV-1,5.05 µM (inactive)
same,GI50,TK-10,20.4 µM (inactive)
same,GI50,HOP-62,6.37 µM (inactive)
same,GI50,OVCAR-8,20 µM (inactive)
same,GI50,HT-29,4.47 µM (inactive)
same,GI50,U-251,14.2 µM (inactive)
same,GI50,SK-MEL-5,6.22 µM (inactive)
same,GI50,SK-MEL-2,3.56 µM (inactive)
same,GI50,A549,11.7 µM (inactive)
same,GI50,SF-539,9.06 µM (inactive)
same,GI50,RXF 393,0.0454 µM (active)
same,GI50,Malme-3M,13.4 µM (inactive)
same,GI50,MDA-MB-435,2.34 µM (inactive)
same,GI50,PC-3,16.8 µM (inactive)
same,GI50,M14,8.97 µM (inactive)
same,GI50,CAKI-1,4.82 µM (inactive)
same,GI50,T47D,7.23 µM (inactive)
same,GI50,UO-31,12.8 µM (inactive)
same,GI50,SR,3.33 µM (inactive)
same,GI50,MCF7,6.47 µM (inactive)
same,GI50,MOLT-4,4.63 µM (inactive)
same,GI50,KM12,8.81 µM (inactive)
same,GI50,UACC-257,12.5 µM (inactive)
same,GI50,Hs-578T,17 µM (inactive)
same,GI50,UACC-62,7.55 µM (inactive)
same,GI50,NCI/ADR-RES,4.12 µM (inactive)
same,GI50,CCRF-CEM,5.42 µM (inactive)
same,GI50,OVCAR-4,4.75 µM (inactive)
same,GI50,DU-145,18.9 µM (inactive)
same,GI50,LOX IMVI,10.4 µM (inactive)
same,GI50,HOP-92,14.3 µM (inactive)
same,GI50,HCT-15,6.21 µM
same,GI50,EKVX,11.1 µM (inactive)
same,GI50,A498,19.3 µM (inactive)
same,GI50,HCC 2998,6.93 µM (inactive)
same,GI50,RPMI-8226,4.36 µM (inactive)
same,GI50,BT-549,18.1 µM (inactive)
same,GI50,OVCAR-3,4.72 µM (inactive)
same,GI50,SN12C,16 µM (inactive)
same,GI50,NCI-H522,3.66 µM (inactive)
same,GI50,MDA-N,4.35 µM (inactive)
same,GI50,SNB-19,17.5 µM (inactive)
same,GI50,SF-295,5.46 µM (inactive)
same,GI50,NCI-H226,12 µM (inactive)
same,GI50,HCT-116,8.34 µM (inactive)
same,GI50,HL-60,3.53 µM (inactive)
same,GI50,MDA-MB-231,9.79 µM (inactive)
same,GI50,SF-268,11.2 µM (inactive)
